Assay results published in paper PMC6348446 (Journal of Medicinal Chemistry, 2018).

Columns and labels:
[1] = Parallel Artificial Membrane Permeability Assay (PAMPA); format: in vitro ADME; conditions: for recovery at 5 h, 10 µM / PAMPA pH 7.4 HIGH/MED/LOW: pH 7.4; for PAMPA pH 7.4 HIGH/MED/LOW: permeability class
Description: (§1) Test compound (10 µM) was incubated in pre-warmed plasma at 37 ᵒC (that is buffered to pH 7.4 in ratio of 70:30 plasma to buffer). Immediately, at time zero, then at 30, 60, 120, and 180 min, a 50 µL aliquot of the incubation mixture was removed and mixed with 200 µL acetonitrile containing Donepezil as the internal standard (50 ng/ml) to stop the reaction. The samples were centrifuged to sediment the precipitated protein and the plates then sealed prior to UPLC-MS/MS analysis using a Xevo TQ-S Micro (Waters Corporation, USA).
(§2) XLfit (IDBS, UK) was used to calculate the exponential decay and consequently the rate constant (k) from the ratio of peak area of test compound to internal standard at each time point. The half-life was calculated for each test compound from the rate by using the […]
(§3) Parallel Artificial Membrane Permeability Assay (PAMPA)
(§4) PAMPA was performed using a 96-well pre-coated BD Gentest™ PAMPA plate (BD Biosciences, U.K.). Each well was divided into two chambers; donor and acceptor, separated by a lipid-oil-lipid tri-layer constructed in a porous filter. The effective permeability, Pe, of the compound was measured at pH 7.4. Stock solutions (5 mM) of the compound were prepared in DMSO. The compound was then further diluted to 10 µM in phosphate buffered […]
(§5) saline at pH 7.4. […] The compound […]
dissolved in phosphate buffered saline was then added to the donor side of the membrane and phosphate buffered saline without compound was added to the acceptor side. The PAMPA plate was left at room temperature for 5 h. After which time, an aliquot (100 µL) was then […]
removed from both acceptor and donor compartments and mixed with acetonitrile (80 µL) containing an internal standard. The samples were centrifuged (10 min, 5 °C, 3270 g) to sediment precipitated protein and sealed prior to UPLC-MS/MS analysis using a Xevo TQ-S Micro (Waters Corp, USA). Pe was calculated as shown in the below equation: […]
CA(t) = peak area of compound present in acceptor well at time t = 18000 s Cequi = [CD(t) x VD + CA(t) x VA] / (VD + VA)
VA = acceptor well volume
CD(t) = peak area of compound present in donor well at time t = 18000 s Recovery of compound from donor and acceptor wells was calculated and data was only accepted when recovery exceeded 70%.
Using a fast gradient, reverse-phase HPLC method to determine the chromatographic hydrophobicity index (CHI) was determined as described by Camurri and Zaramella (ref. 3) and Valko et al. (ref. 4). Briefly, by plotting the retention time of a set of reference

Plasma stability, human = format: in vitro ADME; conditions: 10 µM compound, 37 °C; for half-life at 10 µM: human, plasma, pH 7.4, read-out: Plasma stability T 1/2, Human
Description: as §1, §2, §3, §4, §5
dissolved in phosphate buffered saline was then added to the donor side of the membrane and phosphate buffered saline without compound was added to the acceptor side. The PAMPA plate was left at room temperature for 5 h. After which time, an aliquot (100 µL) was then

BRD9 = molecular target: T1, BRD9 (Homo sapiens, UniProt Q9H8M2); experiment: Western blot of BRD9 levels in RI-1 cells after compound treatment; format: cell-based; conditions: for BRD9 degradation: 4 h
T1 construct: Western blot analysis of BRD9 and BRD7 levels after treatment of HeLa cells; endogenous in cells; host or cells: HeLa
T1 sequence (Q9H8M2 1-597): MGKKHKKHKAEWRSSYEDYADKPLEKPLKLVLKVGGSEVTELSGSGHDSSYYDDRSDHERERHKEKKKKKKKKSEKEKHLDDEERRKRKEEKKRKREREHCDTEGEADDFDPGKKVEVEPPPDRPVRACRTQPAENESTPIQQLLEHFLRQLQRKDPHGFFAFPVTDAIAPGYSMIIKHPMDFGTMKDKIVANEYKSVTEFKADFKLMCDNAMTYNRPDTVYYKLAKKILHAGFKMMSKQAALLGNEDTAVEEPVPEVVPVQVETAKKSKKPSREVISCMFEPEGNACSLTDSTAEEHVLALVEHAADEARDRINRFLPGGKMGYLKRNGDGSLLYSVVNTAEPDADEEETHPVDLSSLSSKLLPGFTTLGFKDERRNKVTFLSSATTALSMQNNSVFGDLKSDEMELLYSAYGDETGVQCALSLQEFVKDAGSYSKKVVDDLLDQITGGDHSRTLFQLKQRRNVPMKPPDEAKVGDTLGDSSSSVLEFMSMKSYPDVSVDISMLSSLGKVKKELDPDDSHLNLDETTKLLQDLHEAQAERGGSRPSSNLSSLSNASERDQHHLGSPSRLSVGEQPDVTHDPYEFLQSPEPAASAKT

| Compound | recovery at 5 h, 10 µM ([1]; PAMPA) | PAMPA pH 7.4 Pe ([1]; pH 7.4, 5 h) | PAMPA pH 7.4 HIGH/MED/LOW [1] | Plasma stability T 1/2, Human (Plasma stability, human) | half-life at 10 µM (Plasma stability, human) | remaining activity at 1 µM (BRD9; 2 h, Table 3, % of total protein remaining relative to 0.1% DMSO vehicle, 1 μM compound, RI-1) | decrease of BRD9 level (BRD9; RI-1 cells, 100 nM, 30 min) | BRD9 degradation (BRD9; RI-1 cells, 100 nM) | concentration window of maximal protein degradation of BRD9 (BRD9; RI-1 cells, 2 and 8 h) | PAMPA pH 7.4 HIGH/MED/LOW ([1]; listed as VZ185) | Papp at 5 h, 10 µM ([1]; PAMPA, pH 7.4, 5 h, read-out: PAMPA pH 7.4 Pe) |
| --- | --- | --- | --- | --- | --- | --- | --- | --- | --- | --- | --- |
| COc1cc(-c2cn(C)c(=O)c3cnccc23)cc(OC)c1CN1CCN(CCOCCOCCOc2cc(-c3scnc3C)ccc2CNC(=O)[C@@H]2C[C@@H](O)CN2C(=O)[C@@H](NC(=O)C2(F)CC2)C(C)(C)C)CC1 [Compound 26, (2S,4R)-N-(2-(2-(2-(2-(4-(2,6-Dimethoxy-4-(2-methyl-1-oxo-1,2-dihydro-2,7-naphthyridin-4-yl)benzyl)piperazin-1-yl)ethoxy)ethoxy)ethoxy)-4-(4-methylthiazol-5-yl)benzyl)-1-((S)-2-(1-fluorocyclopropane-1-carboxamido)-3,3-dimethylbutanoyl)-4-hydroxypyrrolidine-2-carboxamide] | 94% | 0.01 nm/s | LOW and low cell permeability |  |  |  |  |  |  |  |  |
| COc1cc(-c2cn(C)c(=O)c3cnccc23)cc(OC)c1CN1CCN(CCCCCOc2cc(-c3scnc3C)ccc2CNC(=O)[C@@H]2C[C@@H](O)CN2C(=O)[C@@H](NC(=O)C2(F)CC2)C(C)(C)C)CC1 [Compound 51, (2S,4R)-N-(2-((5-(4-(2,6-Dimethoxy-4-(2-methyl-1-oxo-1,2-dihydro-2,7-naphthyridin-4-yl)benzyl)piperazin-1-yl)pentyl)oxy)-4-(4-methylthiazol-5-yl)benzyl)-1-((S)-2-(1-fluorocyclopropane-1-carboxamido)-3,3-dimethylbutanoyl)-4-hydroxypyrrolidine-2-carboxamide] |  | 0.01 nm/s |  | high stabilities | > 3 h | 100% | more than 50% | more than 90% | 10 to 100 nM | LOW and low cell permeability |  |
| COc1cc(-c2cn(C)c(=O)c3cnccc23)cc(OC)c1CN1CCN(CCCCCOc2cc(-c3scnc3C)ccc2CNC(=O)[C@@H]2C[C@H](O)CN2C(=O)[C@@H](NC(=O)C2(F)CC2)C(C)(C)C)CC1 [cisVZ185] | 87% |  | LOW |  | > 3 h |  |  | no degradation |  |  | 0.036 ×10⁻⁶ cm/s |
